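Five concentrations, 48 hours, 96-well plates. TGI marks complete inhibition of growth.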
Experiments:
Assay in all cases: NCI-60 cell line screen, 48 h
NCI-H23 lung = system: NCI-H23 lung
CAKI-1 renal = system: CAKI-1 renal
HOP-92 NSCLC = system: HOP-92 NSCLC
SK-MEL-28 melanoma = system: SK-MEL-28 melanoma
ACHN renal = system: ACHN renal
HOP-62 NSCLC = system: HOP-62 NSCLC
HCC-2998 colon = system: HCC-2998 colon
A549 NSCLC = system: A549 NSCLC
HT29 colon = system: HT29 colon
T-47D breast = system: T-47D breast
COLO 205 colon = system: COLO 205 colon
UACC-257 melanoma = system: UACC-257 melanoma
M14 melanoma = system: M14 melanoma
UACC-62 melanoma = system: UACC-62 melanoma
MDA-MB-435 = system: MDA-MB-435
NCI/ADR-RES ovarian = system: NCI/ADR-RES ovarian
K-562 leukemia = system: K-562 leukemia
OVCAR-4 ovarian = system: OVCAR-4 ovarian
LOX IMVI melanoma = system: LOX IMVI melanoma
U251 CNS = system: U251 CNS
HCT-116 colon = system: HCT-116 colon
SR leukemia = system: SR leukemia
MCF7 breast = system: MCF7 breast
CCRF-CEM leukemia = system: CCRF-CEM leukemia
RXF 393 renal = system: RXF 393 renal
SW-620 colon = system: SW-620 colon
NCI-H226 lung = system: NCI-H226 lung
SF-268 CNS = system: SF-268 CNS
NCI-H460 lung = system: NCI-H460 lung
SK-MEL-5 melanoma = system: SK-MEL-5 melanoma
DU-145 prostate = system: DU-145 prostate
MOLT-4 leukemia = system: MOLT-4 leukemia
HS 578T breast = system: HS 578T breast
SNB-19 CNS = system: SNB-19 CNS
SF-295 CNS = system: SF-295 CNS
KM12 colon = system: KM12 colon
MDA-MB-231 breast = system: MDA-MB-231 breast
IGROV1 ovarian = system: IGROV1 ovarian
MALME-3M melanoma = system: MALME-3M melanoma
HL-60(TB) leukemia = system: HL-60(TB) leukemia
RPMI-8226 leukemia = system: RPMI-8226 leukemia
786-0 renal = system: 786-0 renal
SN12C renal = system: SN12C renal
SF-539 CNS = system: SF-539 CNS
OVCAR-8 ovarian = system: OVCAR-8 ovarian
SNB-75 CNS = system: SNB-75 CNS
NCI-H522 lung = system: NCI-H522 lung
OVCAR-3 ovarian = system: OVCAR-3 ovarian
HCT-15 colon = system: HCT-15 colon
TK-10 renal = system: TK-10 renal
EKVX NSCLC = system: EKVX NSCLC
A498 renal = system: A498 renal
MDA-N = system: MDA-N
SK-OV-3 ovarian = system: SK-OV-3 ovarian
OVCAR-5 ovarian = system: OVCAR-5 ovarian
PC-3 prostate = system: PC-3 prostate
SK-MEL-2 melanoma = system: SK-MEL-2 melanoma
BT-549 breast = system: BT-549 breast
UO-31 renal = system: UO-31 renal

SMILES: C=CO/N=[N+](\[O-])N(CC)CC
- TGI (NCI-H23 lung): > 100 µM
- TGI (CAKI-1 renal): > 100 µM
- TGI (HOP-92 NSCLC): > 100 µM
- TGI (SK-MEL-28 melanoma): > 100 µM
- TGI (ACHN renal): > 100 µM
- TGI (HOP-62 NSCLC): > 100 µM
- TGI (HCC-2998 colon): > 100 µM
- TGI (A549 NSCLC): > 100 µM
- TGI (HT29 colon): > 100 µM
- TGI (T-47D breast): > 100 µM
- TGI (COLO 205 colon): > 100 µM
- TGI (UACC-257 melanoma): > 100 µM
- TGI (M14 melanoma): > 100 µM
- TGI (UACC-62 melanoma): > 100 µM
- TGI (MDA-MB-435): > 100 µM
- TGI (NCI/ADR-RES ovarian): > 100 µM
- TGI (K-562 leukemia): > 100 µM
- TGI (OVCAR-4 ovarian): > 100 µM
- TGI (LOX IMVI melanoma): > 100 µM
- TGI (U251 CNS): > 100 µM
- TGI (HCT-116 colon): > 100 µM
- TGI (SR leukemia): > 100 µM
- TGI (MCF7 breast): > 100 µM
- TGI (CCRF-CEM leukemia): > 100 µM
- TGI (RXF 393 renal): > 100 µM
- TGI (SW-620 colon): > 100 µM
- TGI (NCI-H226 lung): > 100 µM
- TGI (SF-268 CNS): > 100 µM
- TGI (NCI-H460 lung): > 100 µM
- TGI (SK-MEL-5 melanoma): > 100 µM
- TGI (DU-145 prostate): > 100 µM
- TGI (MOLT-4 leukemia): > 100 µM
- TGI (HS 578T breast): > 100 µM
- TGI (SNB-19 CNS): > 100 µM
- TGI (SF-295 CNS): > 100 µM
- TGI (KM12 colon): > 100 µM
- TGI (MDA-MB-231 breast): > 100 µM
- TGI (IGROV1 ovarian): > 100 µM
- TGI (MALME-3M melanoma): > 100 µM
- TGI (HL-60(TB) leukemia): > 100 µM
- TGI (RPMI-8226 leukemia): > 100 µM
- TGI (786-0 renal): > 100 µM
- TGI (SN12C renal): > 100 µM
- TGI (SF-539 CNS): > 100 µM
- TGI (OVCAR-8 ovarian): > 100 µM
- TGI (SNB-75 CNS): > 100 µM
- TGI (NCI-H522 lung): > 100 µM
- TGI (OVCAR-3 ovarian): > 100 µM
- TGI (HCT-15 colon): > 100 µM
- TGI (TK-10 renal): > 100 µM
- TGI (EKVX NSCLC): > 100 µM
- TGI (A498 renal): > 100 µM
- TGI (MDA-N): > 100 µM
- TGI (SK-OV-3 ovarian): > 100 µM
- TGI (OVCAR-5 ovarian): > 100 µM

SMILES: c1nc(NCCc2cnc[nH]2)c2[nH]cnc2n1
- TGI (NCI-H23 lung): > 100 µM
- TGI (CAKI-1 renal): > 100 µM
- TGI (HOP-92 NSCLC): > 100 µM
- TGI (SK-MEL-28 melanoma): > 100 µM
- TGI (ACHN renal): > 100 µM
- TGI (HOP-62 NSCLC): > 100 µM
- TGI (A549 NSCLC): > 100 µM
- TGI (HT29 colon): > 100 µM
- TGI (T-47D breast): > 100 µM
- TGI (COLO 205 colon): > 100 µM
- TGI (UACC-257 melanoma): > 100 µM
- TGI (M14 melanoma): > 100 µM
- TGI (UACC-62 melanoma): > 100 µM
- TGI (MDA-MB-435): > 100 µM
- TGI (NCI/ADR-RES ovarian): > 100 µM
- TGI (K-562 leukemia): > 100 µM
- TGI (PC-3 prostate): > 100 µM
- TGI (OVCAR-4 ovarian): > 100 µM
- TGI (LOX IMVI melanoma): > 100 µM
- TGI (U251 CNS): > 100 µM
- TGI (HCT-116 colon): > 100 µM
- TGI (SR leukemia): > 100 µM
- TGI (SK-MEL-2 melanoma): > 100 µM
- TGI (CCRF-CEM leukemia): > 100 µM
- TGI (RXF 393 renal): > 100 µM
- TGI (SW-620 colon): > 100 µM
- TGI (NCI-H226 lung): > 100 µM
- TGI (SF-268 CNS): > 100 µM
- TGI (NCI-H460 lung): > 100 µM
- TGI (SK-MEL-5 melanoma): > 100 µM
- TGI (DU-145 prostate): > 100 µM
- TGI (MOLT-4 leukemia): > 100 µM
- TGI (HS 578T breast): > 100 µM
- TGI (SNB-19 CNS): > 100 µM
- TGI (SF-295 CNS): > 100 µM
- TGI (KM12 colon): > 100 µM
- TGI (MDA-MB-231 breast): > 100 µM
- TGI (IGROV1 ovarian): > 100 µM
- TGI (MALME-3M melanoma): > 100 µM
- TGI (HL-60(TB) leukemia): > 100 µM
- TGI (RPMI-8226 leukemia): > 100 µM
- TGI (786-0 renal): > 100 µM
- TGI (SN12C renal): > 100 µM
- TGI (SF-539 CNS): > 100 µM
- TGI (OVCAR-8 ovarian): > 100 µM
- TGI (SNB-75 CNS): > 100 µM
- TGI (NCI-H522 lung): > 100 µM
- TGI (BT-549 breast): > 100 µM
- TGI (OVCAR-3 ovarian): > 100 µM
- TGI (UO-31 renal): > 100 µM
- TGI (HCT-15 colon): > 100 µM
- TGI (TK-10 renal): > 100 µM
- TGI (EKVX NSCLC): > 100 µM
- TGI (A498 renal): > 100 µM
- TGI (MDA-N): > 100 µM
- TGI (SK-OV-3 ovarian): > 100 µM
- TGI (OVCAR-5 ovarian): > 100 µM

SMILES: O=C(/C(=C(/O)c1ccccc1)c1nc2ccccc2sc1=O)c1ccccc1
- TGI (NCI-H23 lung): 68 µM
- TGI (CAKI-1 renal): > 100 µM
- TGI (HOP-92 NSCLC): > 100 µM
- TGI (SK-MEL-28 melanoma): > 100 µM
- TGI (ACHN renal): > 100 µM
- TGI (HOP-62 NSCLC): 44.1 µM
- TGI (HCC-2998 colon): 59.7 µM
- TGI (A549 NSCLC): > 100 µM
- TGI (HT29 colon): 72.3 µM
- TGI (T-47D breast): > 100 µM
- TGI (COLO 205 colon): > 100 µM
- TGI (UACC-257 melanoma): 46.2 µM
- TGI (M14 melanoma): 33.3 µM
- TGI (UACC-62 melanoma): > 100 µM
- TGI (MDA-MB-435): > 100 µM
- TGI (NCI/ADR-RES ovarian): 74.4 µM
- TGI (K-562 leukemia): 45 µM
- TGI (PC-3 prostate): > 100 µM
- TGI (OVCAR-4 ovarian): > 100 µM
- TGI (LOX IMVI melanoma): > 100 µM
- TGI (U251 CNS): > 100 µM
- TGI (HCT-116 colon): > 100 µM
- TGI (MCF7 breast): 75.5 µM
- TGI (SK-MEL-2 melanoma): 76 µM
- TGI (CCRF-CEM leukemia): 6.51 µM
- TGI (RXF 393 renal): > 100 µM
- TGI (SW-620 colon): > 100 µM
- TGI (NCI-H226 lung): 72.8 µM
- TGI (SF-268 CNS): > 100 µM
- TGI (NCI-H460 lung): 30.5 µM
- TGI (SK-MEL-5 melanoma): 54.3 µM
- TGI (DU-145 prostate): > 100 µM
- TGI (HS 578T breast): > 100 µM
- TGI (SNB-19 CNS): > 100 µM
- TGI (SF-295 CNS): 74.9 µM
- TGI (KM12 colon): > 100 µM
- TGI (MDA-MB-231 breast): > 100 µM
- TGI (IGROV1 ovarian): > 100 µM
- TGI (MALME-3M melanoma): > 100 µM
- TGI (HL-60(TB) leukemia): 20.7 µM
- TGI (RPMI-8226 leukemia): 41.8 µM
- TGI (786-0 renal): > 100 µM
- TGI (SN12C renal): 90.5 µM
- TGI (SF-539 CNS): 75 µM
- TGI (OVCAR-8 ovarian): > 100 µM
- TGI (SNB-75 CNS): > 100 µM
- TGI (NCI-H522 lung): 68 µM
- TGI (BT-549 breast): > 100 µM
- TGI (OVCAR-3 ovarian): 36.3 µM
- TGI (UO-31 renal): 74.4 µM
- TGI (HCT-15 colon): > 100 µM
- TGI (TK-10 renal): > 100 µM
- TGI (EKVX NSCLC): > 100 µM
- TGI (A498 renal): > 100 µM
- TGI (MDA-N): > 100 µM
- TGI (SK-OV-3 ovarian): 77.3 µM
- TGI (OVCAR-5 ovarian): > 100 µM

— PubChem BioAssay (NCI)
